The results in this text go back to article PMC6374188 (Organic & biomolecular chemistry, 2019).

Experiment [1] concerns the target T1, GlbB (Caldimonas brevitalea, UniProt A8KCI8).
T1 sequence (A8KCI8 1-286): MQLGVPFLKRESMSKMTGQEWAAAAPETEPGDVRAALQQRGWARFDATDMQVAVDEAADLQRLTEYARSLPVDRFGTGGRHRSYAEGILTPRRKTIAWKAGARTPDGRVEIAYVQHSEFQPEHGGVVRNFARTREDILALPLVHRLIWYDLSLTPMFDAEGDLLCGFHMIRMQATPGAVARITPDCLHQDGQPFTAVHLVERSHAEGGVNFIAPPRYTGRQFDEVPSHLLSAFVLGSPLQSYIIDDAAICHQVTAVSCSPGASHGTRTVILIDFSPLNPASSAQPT
The experiment can be described thus: steady-state kinetics of hydroxylation. The experiment is classed as biochemical. To be noted: Fe(II)/alpha-ketoglutarate-dependent C4 hydroxylation.

The target in experiment [2] is T1, GlbB. The experiment in a line: steady-state kinetics of oxidation. Format: biochemical. The settings on record: Fe(II)/alpha-ketoglutarate-dependent; product is the sulfoxide.

On to `NCCCC[C@H](N)C(=O)O` [compound 3, L-Lys], for which the KM entry on GlbB [1] was “steady-state kinetic parameters were obtained for hydroxylation of L-Lys, L-Leu, and L-Met (Figure S5)”.
With `CSCC[C@H](N)C(=O)O` [L-Met], the KM entry on GlbB [2] was “steady-state kinetic parameters were obtained for hydroxylation of L-Lys, L-Leu, and L-Met (Figure S5)”.
On to `CC(C)C[C@H](N)C(=O)O` [L-Leu], for which the KM entry at GlbB [1] is “steady-state kinetic parameters were obtained for hydroxylation of L-Lys, L-Leu, and L-Met (Figure S5)”.
